Measured values reported in ChEMBL document CHEMBL4002571, “Novel designed VmCT1 analogs with increased antimicrobial activity” (Eur J Med Chem, 2017).
Activity calls are given as the source filed them. No cut-off for these calls is given here.

Assays:
Candida tropicalis = test: Antifungal activity against Candida tropicalis IOC 4560 after 18 hrs by liquid growth inhibition assay; format: functional; settings: IOC 4560, 18 h, read-out: MIC100
Staphylococcus aureus [1] = test: Antibacterial activity against Staphylococcus aureus ATCC 29213 after 18 hrs by liquid growth inhibition assay; format: functional; settings: ATCC 29213, 18 h, read-out: MIC100
Pseudomonas aeruginosa [2] = test: Antibacterial activity against Pseudomonas aeruginosa ATCC 27853 after 18 hrs by liquid growth inhibition assay; format: functional; settings: ATCC 27853, 18 h, read-out: MIC100
Enterobacter cloacae [3] = test: Antibacterial activity against Enterobacter cloacae beta-12 after 18 hrs by liquid growth inhibition assay; format: functional; settings: beta-12, 18 h, read-out: MIC100
Aspergillus niger [4] = test: Antifungal activity against Aspergillus niger after 72 hrs by liquid growth inhibition assay; format: functional; settings: read-out: MIC100
Cryptococcus neoformans = test: Antifungal activity against Cryptococcus neoformans after 18 hrs by liquid growth inhibition assay; format: functional; settings: read-out: MIC100
Candida albicans = test: Antifungal activity against Candida albicans MDM8 after 18 hrs by liquid growth inhibition assay; format: functional; settings: MDM8, 18 h, read-out: MIC100
Bacillus spizizenii [5] = test: Antibacterial activity against Bacillus subtilis ATCC 6633 after 18 hrs by liquid growth inhibition assay; format: functional; settings: ATCC 6633, 18 h, read-out: MIC100
Erythrocyte = test: Hemolytic activity in human erythrocytes after 1 hr; format: ADME, cell-based
Escherichia coli [6] = test: Antibacterial activity against Escherichia coli SBS 363 after 18 hrs by liquid growth inhibition assay; format: functional; settings: SBS 363, 18 h, read-out: MIC100
[7] = system: Staphylococcus epidermidis; test: Antibacterial activity against Staphylococcus epidermidis ATCC 12228 after 18 hrs by liquid growth inhibition assay; format: functional; settings: ATCC 12228, 18 h, read-out: MIC100
Serratia marcescens = test: Antibacterial activity against Serratia marcescens ATCC 4112 after 18 hrs by liquid growth inhibition assay; format: functional; settings: ATCC 4112, 18 h, read-out: MIC100
Escherichia coli [8] = test: Antibacterial activity against Escherichia coli D31 after 18 hrs by liquid growth inhibition assay; format: functional; settings: D31, 18 h, read-out: MIC100
Cladosporium herbarum [9] = test: Antifungal activity against Cladosporium herbarum after 72 hrs by liquid growth inhibition assay; format: functional; settings: read-out: MIC100
Micrococcus luteus = test: Antibacterial activity against Micrococcus luteus A270 after 18 hrs by liquid growth inhibition assay; format: functional; settings: A270, 18 h, read-out: MIC100
Candida parapsilosis [10] = test: Antifungal activity against Candida parapsilosis IOC 4564 after 18 hrs by liquid growth inhibition assay; format: functional; settings: Lodderomyces parapsilosis, IOC 4564, 18 h; read-out: MIC100
Bacillus spizizenii [11] = test: Antibacterial activity against Bacillus subtilis ATCC 6633 measured every 4 hrs by broth micro-dilution method; format: functional; settings: ATCC 6633, 4 h
Staphylococcus aureus [12] = test: Antibacterial activity against Staphylococcus aureus ATCC 25923 measured every 4 hrs by broth micro-dilution method; format: functional; settings: ATCC 25923, 4 h
Escherichia coli [13] = test: Antibacterial activity against Escherichia coli ATCC 25922 measured every 4 hrs by broth micro-dilution method; format: functional; settings: ATCC 25922, 4 h
Pseudomonas aeruginosa [14] = test: Antibacterial activity against Pseudomonas aeruginosa ATCC 9027 measured every 4 hrs by broth micro-dilution method; format: functional; settings: ATCC 9027, 4 h
Escherichia coli [15] = test: Antibacterial activity against Escherichia coli SBS 363 up to 50 umol/L after 18 hrs by liquid growth inhibition assay; format: functional
Candida parapsilosis [16] = test: Antifungal activity against Candida parapsilosis IOC 4564 up to 50 umol/L after 18 hrs by liquid growth inhibition assay; format: functional
Enterobacter cloacae [17] = test: Antibacterial activity against Enterobacter cloacae beta-12 up to 50 umol/L after 18 hrs by liquid growth inhibition assay; format: functional
Bacillus spizizenii [18] = test: Antibacterial activity against Bacillus subtilis ATCC 6633 up to 50 umol/L after 18 hrs by liquid growth inhibition assay; format: functional
Aspergillus niger [19] = test: Antifungal activity against Aspergillus niger up to 50 umol/L after 72 hrs by liquid growth inhibition assay; format: functional
Cladosporium herbarum [20] = test: Antifungal activity against Cladosporium herbarum up to 50 umol/L after 72 hrs by liquid growth inhibition assay; format: functional

Row | Substance | MIC (Candida tropicalis) [µM] | MIC (Staphylococcus aureus [1]) [µM] | MIC (Pseudomonas aeruginosa [2]) [µM] | MIC (Enterobacter cloacae [3]) [µM] | MIC (Aspergillus niger [4]) [µM] | MIC (Cryptococcus neoformans) [µM] | MIC (Candida albicans) [µM] | MIC (Bacillus spizizenii [5]) [µM] | MIC (Escherichia coli [6]) [µM] | MIC [7] [µM] | MIC (Serratia marcescens) [µM] | MIC (Escherichia coli [8]) [µM] | MIC (Cladosporium herbarum [9]) [µM] | MIC (Micrococcus luteus) [µM] | MIC (Candida parapsilosis [10]) [µM] | MHC (Erythrocyte) [µmol/L] | also measured
1 | H-FLGALWEVAKSVF-NH2 | 12.5 | 6.25 | 0.78 | 25 | 25 | 6.25 | 12.5 | 12.5 | 12.5 | 6.25 | 1.56 | 12.5 | 25 | 1.56 | 50 | 1.6 | –
2 | H-FLGALWNVWKSVF-NH2 | 6.25 | 1.56 | 0.78 | 6.25 | 50 | 3.12 | 1.56 | 6.25 | 1.56 | 3.12 | 1.56 | 1.56 | 50 | 1.56 | 50 | 1.6 | –
3 | H-FLGELWNVAKSVF-NH2 | 12.5 | 50 | 3.12 | – | – | 12.5 | 50 | – | – | 50 | 3.12 | 50 | – | 25 | – | 25 | growth inhibition (GI) (Escherichia coli [15]): inactive; growth inhibition (GI) (Candida parapsilosis [16]): inactive; growth inhibition (GI) (Enterobacter cloacae [17]): inactive; growth inhibition (GI) (Bacillus spizizenii [18]): inactive; growth inhibition (GI) (Aspergillus niger [19]): inactive; growth inhibition (GI) (Cladosporium herbarum [20]): inactive
4 | H-FLGELWNVWKSVF-NH2 | 12.5 | 12.5 | 3.12 | 50 | – | 6.25 | 6.25 | 12.5 | 12.5 | 6.25 | 3.12 | 6.25 | – | 3.12 | – | 1.6 | growth inhibition (GI) (Candida parapsilosis [16]): inactive; growth inhibition (GI) (Aspergillus niger [19]): inactive; growth inhibition (GI) (Cladosporium herbarum [20]): inactive

More lines, in order of falling MIC (Candida tropicalis), values ahead:

Row | MIC (Candida tropicalis) [µM] | MIC (Staphylococcus aureus [1]) [µM] | MIC (Pseudomonas aeruginosa [2]) [µM] | MIC (Enterobacter cloacae [3]) [µM] | MIC (Aspergillus niger [4]) [µM] | MIC (Cryptococcus neoformans) [µM] | MIC (Candida albicans) [µM] | MIC (Bacillus spizizenii [5]) [µM] | MIC (Escherichia coli [6]) [µM] | MIC [7] [µM] | MIC (Serratia marcescens) [µM] | MIC (Escherichia coli [8]) [µM] | MIC (Cladosporium herbarum [9]) [µM] | MIC (Micrococcus luteus) [µM] | MIC (Candida parapsilosis [10]) [µM] | Substance | MHC (Erythrocyte) [µmol/L] | also measured
5 | 6.25 | 3.12 | 0.78 | 25 | 25 | 3.12 | 12.5 | 25 | – | 3.12 | 1.56 | 3.12 | 50 | 1.56 | 25 | H-FLGALWNVAKSVF-NH2 | 6.25 | MIC (Bacillus spizizenii [11]): 20 µM; MIC (Staphylococcus aureus [12]): 10 µM; MIC (Escherichia coli [13]): 25 µM; MIC (Pseudomonas aeruginosa [14]): 10 µM
6 | 3.12 | 1.56 | 0.39 | 6.25 | 6.25 | 1.56 | 1.56 | 6.25 | 1.56 | 1.56 | 0.78 | 1.56 | 6.25 | 1.56 | 6.25 | H-FLGALWNVAKKVF-NH2 | 1.6 | –
7 | 3.12 | 3.12 | 0.78 | 6.25 | 12.5 | 3.12 | 3.12 | 6.25 | 1.56 | 3.12 | 1.56 | 1.56 | 25 | 0.78 | 6.25 | H-FLKALWNVAKSVF-NH2 | 1.6 | –
8 | 1.56 | 1.56 | 0.39 | 6.25 | 6.25 | 1.56 | 1.56 | 3.12 | 1.56 | 1.56 | 0.78 | 1.56 | 12.5 | 1.56 | 1.56 | H-FLGALWKVAKSVF-NH2 | 1.6 | –
